Data: ChEMBL document CHEMBL1139793, “Synthesis, structure analysis, and antibacterial activity of some novel 10-substituted 2-(4-piperidyl/phenyl)-5,5-dioxo[1,2,4]triazolo[1,5-b][1,2,4]benzothiadiazine derivatives” (2007)
Converted amounts (≈) assume the structure as drawn.

Experiments:
Type in all cases: functional
Escherichia coli = experiment: Antibacterial activity against Escherichia coli MTCC 448 after 24 hrs by disk diffusion method
Pseudomonas aeruginosa = experiment: Antibacterial activity against Pseudomonas aeruginosa MTCC 424 after 24 hrs by disk diffusion method
Klebsiella pneumoniae = experiment: Antibacterial activity against Klebsiella pneumoniae MTCC 618 after 24 hrs by disk diffusion method
[1] = system: Staphylococcus epidermidis; experiment: Antibacterial activity against Staphylococcus epidermidis MTCC 435 after 24 hrs by disk diffusion method
Vibrio sp. = experiment: Antibacterial activity against Vibrio sp. after 24 hrs by disk diffusion method
Bacillus subtilis = experiment: Antibacterial activity against Bacillus subtilis MTCC 441 after 24 hrs by disk diffusion method

| MIC (Escherichia coli) | MIC (Pseudomonas aeruginosa) | MIC (Klebsiella pneumoniae) | MIC [1] | MIC (Vibrio sp.) | MIC (Bacillus subtilis) | Compound |
| --- | --- | --- | --- | --- | --- | --- |
| 16 mg/L (≈ 30.7 µM) | 16 mg/L (≈ 30.7 µM) | 32 mg/L (≈ 61.3 µM) | 32 mg/L (≈ 61.3 µM) | 32 mg/L (≈ 61.3 µM) | 16 mg/L (≈ 30.7 µM) | O=S(=O)(c1ccccc1)N1CCC(c2nc3n(n2)S(=O)(=O)c2ccccc2N3c2ccccc2)CC1 |
| 16 mg/L (≈ 27.1 µM) | 32 mg/L (≈ 54.2 µM) | 32 mg/L (≈ 54.2 µM) | 32 mg/L (≈ 54.2 µM) | 16 mg/L (≈ 27.1 µM) | 16 mg/L (≈ 27.1 µM) | O=S(=O)(c1ccc(Cl)cc1Cl)N1CCC(c2nc3n(n2)S(=O)(=O)c2ccccc2N3c2ccccc2)CC1 |
| 16 mg/L (≈ 27.6 µM) | 32 mg/L (≈ 55.3 µM) | 32 mg/L (≈ 55.3 µM) | 32 mg/L (≈ 55.3 µM) | 32 mg/L (≈ 55.3 µM) | 16 mg/L (≈ 27.6 µM) | CC(=O)Nc1ccc(S(=O)(=O)N2CCC(c3nc4n(n3)S(=O)(=O)c3ccccc3N4c3ccccc3)CC2)cc1 |
| 16 mg/L (≈ 29.7 µM) | 32 mg/L (≈ 59.3 µM) | 32 mg/L (≈ 59.3 µM) | 32 mg/L (≈ 59.3 µM) | 16 mg/L (≈ 29.7 µM) | 16 mg/L (≈ 29.7 µM) | O=S(=O)(c1ccc(F)cc1)N1CCC(c2nc3n(n2)S(=O)(=O)c2ccccc2N3c2ccccc2)CC1 |
| 8 mg/L (≈ 17.4 µM) | 64 mg/L (≈ 139 µM) | 32 mg/L (≈ 69.6 µM) | 32 mg/L (≈ 69.6 µM) | 32 mg/L (≈ 69.6 µM) | 16 mg/L (≈ 34.8 µM) | CN1c2ccccc2S(=O)(=O)n2nc(C3CCN(S(=O)(=O)c4ccccc4)CC3)nc21 |
| 8 mg/L (≈ 13.6 µM) | 32 mg/L (≈ 54.5 µM) | 16 mg/L (≈ 27.3 µM) | 32 mg/L (≈ 54.5 µM) | 32 mg/L (≈ 54.5 µM) | 8 mg/L (≈ 13.6 µM) | CC(=O)Nc1ccc(S(=O)(=O)Nc2ccc(-c3nc4n(n3)S(=O)(=O)c3ccccc3N4c3ccccc3)cc2)cc1 |
| 16 mg/L (≈ 30.3 µM) | 64 mg/L (≈ 121 µM) | 16 mg/L (≈ 30.3 µM) | 16 mg/L (≈ 30.3 µM) | 32 mg/L (≈ 60.6 µM) | 16 mg/L (≈ 30.3 µM) | CN1c2ccccc2S(=O)(=O)n2nc(C3CCN(S(=O)(=O)c4ccc(Cl)cc4Cl)CC3)nc21 |
| 8 mg/L (≈ 15.5 µM) | 32 mg/L (≈ 61.9 µM) | 32 mg/L (≈ 61.9 µM) | 32 mg/L (≈ 61.9 µM) | 16 mg/L (≈ 31 µM) | 32 mg/L (≈ 61.9 µM) | CC(=O)Nc1ccc(S(=O)(=O)N2CCC(c3nc4n(n3)S(=O)(=O)c3ccccc3N4C)CC2)cc1 |
| 16 mg/L (≈ 29.9 µM) | 32 mg/L (≈ 59.7 µM) | 16 mg/L (≈ 29.9 µM) | 32 mg/L (≈ 59.7 µM) | 32 mg/L (≈ 59.7 µM) | 16 mg/L (≈ 29.9 µM) | Cc1ccc(S(=O)(=O)N2CCC(c3nc4n(n3)S(=O)(=O)c3ccccc3N4c3ccccc3)CC2)cc1 |
| 16 mg/L (≈ 29.2 µM) | 32 mg/L (≈ 58.4 µM) | 64 mg/L (≈ 117 µM) | 16 mg/L (≈ 29.2 µM) | 32 mg/L (≈ 58.4 µM) | 16 mg/L (≈ 29.2 µM) | O=S(=O)(Nc1ccc(-c2nc3n(n2)S(=O)(=O)c2ccccc2N3c2ccccc2)cc1)c1ccc(F)cc1 |
| 16 mg/L (≈ 26.7 µM) | 16 mg/L (≈ 26.7 µM) | 32 mg/L (≈ 53.5 µM) | 32 mg/L (≈ 53.5 µM) | 32 mg/L (≈ 53.5 µM) | 16 mg/L (≈ 26.7 µM) | O=S(=O)(Nc1ccc(-c2nc3n(n2)S(=O)(=O)c2ccccc2N3c2ccccc2)cc1)c1ccc(Cl)cc1Cl |
| 16 mg/L (≈ 30.5 µM) | 32 mg/L (≈ 61 µM) | 32 mg/L (≈ 61 µM) | 32 mg/L (≈ 61 µM) | 32 mg/L (≈ 61 µM) | 16 mg/L (≈ 30.5 µM) | CC(=O)Nc1ccc(S(=O)(=O)Nc2ccc(-c3nc4n(n3)S(=O)(=O)c3ccccc3N4C)cc2)cc1 |
| 16 mg/L (≈ 29.4 µM) | 32 mg/L (≈ 58.9 µM) | 32 mg/L (≈ 58.9 µM) | 32 mg/L (≈ 58.9 µM) | 32 mg/L (≈ 58.9 µM) | 8 mg/L (≈ 14.7 µM) | Cc1ccc(S(=O)(=O)Nc2ccc(-c3nc4n(n3)S(=O)(=O)c3ccccc3N4c3ccccc3)cc2)cc1 |
| 16 mg/L (≈ 33.8 µM) | 64 mg/L (≈ 135 µM) | 64 mg/L (≈ 135 µM) | 32 mg/L (≈ 67.6 µM) | 32 mg/L (≈ 67.6 µM) | 16 mg/L (≈ 33.8 µM) | Cc1ccc(S(=O)(=O)N2CCC(c3nc4n(n3)S(=O)(=O)c3ccccc3N4C)CC2)cc1 |
| 16 mg/L (≈ 33.5 µM) | 32 mg/L (≈ 67 µM) | 16 mg/L (≈ 33.5 µM) | 32 mg/L (≈ 67 µM) | 32 mg/L (≈ 67 µM) | 32 mg/L (≈ 67 µM) | CN1c2ccccc2S(=O)(=O)n2nc(C3CCN(S(=O)(=O)c4ccc(F)cc4)CC3)nc21 |
| 16 mg/L (≈ 30.2 µM) | 32 mg/L (≈ 60.4 µM) | 32 mg/L (≈ 60.4 µM) | 32 mg/L (≈ 60.4 µM) | 32 mg/L (≈ 60.4 µM) | 8 mg/L (≈ 15.1 µM) | O=S(=O)(Nc1ccc(-c2nc3n(n2)S(=O)(=O)c2ccccc2N3c2ccccc2)cc1)c1ccccc1 |
| 16 mg/L (≈ 63.9 µM) | 32 mg/L (≈ 128 µM) | > 64 mg/L | 32 mg/L (≈ 128 µM) | 16 mg/L (≈ 63.9 µM) | 16 mg/L (≈ 63.9 µM) | Nc1ccc(S(=O)(=O)Nc2ncccn2)cc1 [SULFADIAZINE] |
| > 128 mg/L | > 512 mg/L | > 64 mg/L | > 512 mg/L | > 512 mg/L | > 128 mg/L | Nc1ccc(S(N)(=O)=O)cc1 [SULFANILAMIDE] |
